Columns and labels:
[1] = target: T1, CK1α (Homo sapiens, UniProt P48729+Q96SW2); experiment: Western blot, degradation of substrate protein in hPBMCs; assay type: cell-based
T1 construct: effects of the compounds of the present disclosure on the expression of target proteins in cells; endogenous in cells; host or cells: human PBMCs (Milecell Biotechnologies)
Method: (§1) Conventional Western blot assay was performed to evaluate the effects of the compounds of the present disclosure on the expression of target proteins in cells. • (1) Cell Seeding and Protein Harvesting: Human peripheral blood mononuclear cells (hPBMCs) at a density of 1×10^6 cells/mL were thawed according to the PBMC Recovery Protocol (Milecell Biotechnologies Inc, Shanghai). […] After 24 hours of compounds treatment, cells were harvested and lysed in RIPA protein lysate containing protease inhibitors on ice for 30 min, followed by centrifugation. The supernatant was aspirated as the extracted total cell protein. The protein concentration of the supernatant was determined using the conventional BCA (Bicinchoninic Acid) assay. • (2) To the collected supernatant, 5X SDS sample loading buffer was added, followed by denaturation at 95°C for 5 minutes. The denatured samples were then separated by SDS-PAGE electrophoresis on a polyacrylamide gel, transferred onto a nitrocellulose membrane (0.45 µm NC membrane), blocked with blocking buffer at room temperature for 1 hour, and subjected to antibody incubation and development procedures according to the antibody manufacturer's instructions (Cell Signaling Technology Company).
(§2) Half-Maximal Degradation Concentration value (the drug concentration required for degrading proteins by 50%, abbreviated as DC50) reads method: comparing the grayscale values of Western blot bands from drug-treated samples with those from blank DMSO-treated controls, and identifying the drug concentration range at which the grayscale value is half that of the DMSO-treated control bands.
(§3) DC50 values can be calculated using ImageJ software to measure grayscale values of Western blot bands from drug-treated samples. The concentration-response curve is fitted to estimate the drug concentration corresponding to half the grayscale value.
(§4) Target protein remaining (%) refers to the percentage of target protein remaining in cells after treatment with protein degrader compounds.
(§5) Calculation method for target protein remaining (%): Use ImageJ software to measure grayscale values of Western blot bands from drug (protein degrader)-treated samples. The grayscale value of drug-treated bands is divided by that of internal control protein bands, and the resulting quotient is normalized to obtain the relative percentage of remaining target protein after protein degrader treatment.
(§6) Target protein degradation rate (%) = 1−target protein remaining (%). [formula]

[2] = target: T2, IKZF1 (Homo sapiens, UniProt Q13422+Q96SW2); experiment: as above; assay type: cell-based
T2 construct: effects of the compounds of the present disclosure on the expression of target proteins in cells; endogenous in cells; host or cells: human PBMCs (Milecell Biotechnologies)
Method: as §1, §2, §3, §4, §5, §6

[3] = target: T3, IKZF2 (Homo sapiens, UniProt Q96SW2+Q9UKS7); experiment: as above; assay type: cell-based
T3 construct: effects of the compounds of the present disclosure on the expression of target proteins in cells; endogenous in cells; host or cells: human PBMCs (Milecell Biotechnologies)
Method: as §1, §2, §3, §4, §5, §6

[4] = target: T4, IKZF3 (Homo sapiens, UniProt Q96SW2+Q9UKT9); experiment: as above; assay type: cell-based
T4 construct: effects of the compounds of the present disclosure on the expression of target proteins in cells; endogenous in cells; host or cells: human PBMCs (Milecell Biotechnologies)
Method: as §1, §2, §3, §4, §5, §6

[5] = target: T5, WEE1 (Homo sapiens, UniProt P30291+Q96SW2); experiment: as above; assay type: cell-based
T5 construct: effects of the compounds of the present disclosure on the expression of target proteins in cells; endogenous in cells; host or cells: human PBMCs (Milecell Biotechnologies)
Method: as §1, §2, §3, §4, §5, §6

[6] = tested on: GSPT1; experiment: as above; assay type: cell-based, Human
Method: as §1, §2, §3, §4, §5, §6

[7] = target: T6, human Cereblon WT GST-tagged protein (Homo sapiens, UniProt Q96SW2); experiment: CRBN-binding affinity, HTRF (CEREBLON BINDING kit); details: for inhibition at 0.5 µM: read-out: Inhibition Rate at 0.5 µM (%); for inhibition at 2 µM: read-out: Inhibition Rate at 2 µM (%)
T6 construct: purchased CISBIO 64BDCRBNPEH

[8] = Western blot, 24 hours of compound treatment, compounds tested at 50 nM and 500 nM (concentration for the table not stated)
[9] = 24 hours treatment, compounds at 50 nM and 500 nM (concentration behind the class not stated)

T2 sequence (Q13422 whole entry): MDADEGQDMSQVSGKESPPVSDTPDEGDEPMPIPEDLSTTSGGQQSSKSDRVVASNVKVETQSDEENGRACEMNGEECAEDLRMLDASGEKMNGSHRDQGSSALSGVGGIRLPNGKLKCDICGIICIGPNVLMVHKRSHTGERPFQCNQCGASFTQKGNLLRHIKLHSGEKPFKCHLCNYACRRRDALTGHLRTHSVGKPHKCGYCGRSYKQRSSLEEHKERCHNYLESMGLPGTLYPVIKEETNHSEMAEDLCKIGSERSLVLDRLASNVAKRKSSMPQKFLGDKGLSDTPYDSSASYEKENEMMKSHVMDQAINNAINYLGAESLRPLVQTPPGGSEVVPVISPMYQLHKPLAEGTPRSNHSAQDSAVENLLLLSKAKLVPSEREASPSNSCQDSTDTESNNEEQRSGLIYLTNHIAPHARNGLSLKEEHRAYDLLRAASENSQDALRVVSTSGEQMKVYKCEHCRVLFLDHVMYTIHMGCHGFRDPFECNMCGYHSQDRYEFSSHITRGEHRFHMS
T2 sequence (Q96SW2 whole entry): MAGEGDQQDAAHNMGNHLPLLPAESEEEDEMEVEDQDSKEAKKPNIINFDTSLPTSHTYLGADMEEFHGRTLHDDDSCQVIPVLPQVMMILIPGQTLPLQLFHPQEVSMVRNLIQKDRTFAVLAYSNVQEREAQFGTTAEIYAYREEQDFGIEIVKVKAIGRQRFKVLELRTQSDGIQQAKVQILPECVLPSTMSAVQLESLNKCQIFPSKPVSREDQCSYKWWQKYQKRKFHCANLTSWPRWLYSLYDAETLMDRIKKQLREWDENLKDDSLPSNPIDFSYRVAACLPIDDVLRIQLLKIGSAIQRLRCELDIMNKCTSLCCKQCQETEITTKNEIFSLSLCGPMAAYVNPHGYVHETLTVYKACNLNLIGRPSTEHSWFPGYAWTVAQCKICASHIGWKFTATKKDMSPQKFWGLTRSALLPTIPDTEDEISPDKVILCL
T2 sequence (Q16531 whole entry partner): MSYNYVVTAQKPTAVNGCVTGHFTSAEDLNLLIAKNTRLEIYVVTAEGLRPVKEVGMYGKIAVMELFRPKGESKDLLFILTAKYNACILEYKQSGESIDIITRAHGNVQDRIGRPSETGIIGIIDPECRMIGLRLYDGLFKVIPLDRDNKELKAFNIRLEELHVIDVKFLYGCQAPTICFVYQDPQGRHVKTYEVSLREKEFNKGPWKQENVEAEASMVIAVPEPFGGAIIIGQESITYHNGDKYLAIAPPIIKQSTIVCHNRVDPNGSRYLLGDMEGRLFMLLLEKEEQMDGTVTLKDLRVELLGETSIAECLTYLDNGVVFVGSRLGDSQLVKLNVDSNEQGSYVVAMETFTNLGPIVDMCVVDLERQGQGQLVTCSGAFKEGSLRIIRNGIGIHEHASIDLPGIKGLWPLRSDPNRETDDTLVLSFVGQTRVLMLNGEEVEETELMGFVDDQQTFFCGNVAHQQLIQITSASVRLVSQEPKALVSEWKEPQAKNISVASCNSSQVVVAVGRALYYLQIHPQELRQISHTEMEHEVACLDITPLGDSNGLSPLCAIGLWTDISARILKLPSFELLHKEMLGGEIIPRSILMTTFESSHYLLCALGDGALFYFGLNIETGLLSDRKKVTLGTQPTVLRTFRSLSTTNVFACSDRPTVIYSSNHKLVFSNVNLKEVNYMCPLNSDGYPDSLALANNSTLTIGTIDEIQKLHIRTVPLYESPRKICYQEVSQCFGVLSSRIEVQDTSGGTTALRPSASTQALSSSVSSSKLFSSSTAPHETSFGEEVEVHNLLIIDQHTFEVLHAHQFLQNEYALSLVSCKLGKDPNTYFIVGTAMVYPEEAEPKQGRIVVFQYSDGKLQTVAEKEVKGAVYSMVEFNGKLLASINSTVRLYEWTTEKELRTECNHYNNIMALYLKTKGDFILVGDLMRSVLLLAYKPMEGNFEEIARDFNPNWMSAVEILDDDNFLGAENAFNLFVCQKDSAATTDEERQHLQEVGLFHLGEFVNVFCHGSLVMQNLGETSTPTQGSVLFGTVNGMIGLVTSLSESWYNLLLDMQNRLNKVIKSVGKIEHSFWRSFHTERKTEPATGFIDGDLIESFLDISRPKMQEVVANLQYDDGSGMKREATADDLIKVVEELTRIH
T1 sequence (P48729 whole entry): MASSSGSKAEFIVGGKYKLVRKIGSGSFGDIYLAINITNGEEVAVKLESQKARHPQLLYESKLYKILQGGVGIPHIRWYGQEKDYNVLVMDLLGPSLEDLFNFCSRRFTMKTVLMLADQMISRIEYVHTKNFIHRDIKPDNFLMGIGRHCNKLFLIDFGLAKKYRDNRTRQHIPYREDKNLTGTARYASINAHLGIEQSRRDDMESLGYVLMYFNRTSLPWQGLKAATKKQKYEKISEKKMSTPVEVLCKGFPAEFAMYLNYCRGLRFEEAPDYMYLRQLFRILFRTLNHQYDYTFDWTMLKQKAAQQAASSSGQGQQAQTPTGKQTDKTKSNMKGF
T1 sequence (Q96SW2 whole entry): as the sequence (Q96SW2 whole entry) above
T1 sequence (Q16531 whole entry partner): as the sequence (Q16531 whole entry partner) above
T4 sequence (Q9UKT9 whole entry): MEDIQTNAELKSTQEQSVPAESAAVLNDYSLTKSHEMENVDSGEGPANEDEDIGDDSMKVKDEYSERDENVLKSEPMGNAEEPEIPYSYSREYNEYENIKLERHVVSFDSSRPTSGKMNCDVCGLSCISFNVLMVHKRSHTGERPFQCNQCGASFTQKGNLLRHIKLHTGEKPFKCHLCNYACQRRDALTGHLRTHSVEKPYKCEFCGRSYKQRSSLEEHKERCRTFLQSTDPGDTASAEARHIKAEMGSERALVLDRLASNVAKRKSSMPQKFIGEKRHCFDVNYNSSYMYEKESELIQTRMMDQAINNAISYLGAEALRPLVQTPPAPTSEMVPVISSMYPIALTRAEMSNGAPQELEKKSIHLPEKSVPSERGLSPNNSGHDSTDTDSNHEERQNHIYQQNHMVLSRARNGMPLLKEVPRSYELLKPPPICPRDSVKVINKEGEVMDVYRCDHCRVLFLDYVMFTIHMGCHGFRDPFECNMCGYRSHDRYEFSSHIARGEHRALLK
T4 sequence (Q96SW2 whole entry): as the sequence (Q96SW2 whole entry) above
T4 sequence (Q16531 whole entry partner): as the sequence (Q16531 whole entry partner) above
T3 sequence (Q9UKS7 whole entry): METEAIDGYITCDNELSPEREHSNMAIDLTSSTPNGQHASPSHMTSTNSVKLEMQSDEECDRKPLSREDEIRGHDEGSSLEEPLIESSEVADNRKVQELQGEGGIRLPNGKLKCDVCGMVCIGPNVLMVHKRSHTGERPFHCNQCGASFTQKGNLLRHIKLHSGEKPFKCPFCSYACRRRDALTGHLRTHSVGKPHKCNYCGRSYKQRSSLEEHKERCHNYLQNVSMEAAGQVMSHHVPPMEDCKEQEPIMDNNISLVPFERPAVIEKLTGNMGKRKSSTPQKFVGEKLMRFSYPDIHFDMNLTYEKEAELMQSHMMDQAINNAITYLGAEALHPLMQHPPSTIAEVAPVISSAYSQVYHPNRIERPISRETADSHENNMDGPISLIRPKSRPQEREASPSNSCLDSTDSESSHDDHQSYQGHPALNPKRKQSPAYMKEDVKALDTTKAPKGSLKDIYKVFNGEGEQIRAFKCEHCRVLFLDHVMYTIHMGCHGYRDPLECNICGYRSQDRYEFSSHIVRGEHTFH
T3 sequence (Q96SW2 whole entry): as the sequence (Q96SW2 whole entry) above
T3 sequence (Q16531 whole entry partner): as the sequence (Q16531 whole entry partner) above
T5 sequence (P30291 whole entry): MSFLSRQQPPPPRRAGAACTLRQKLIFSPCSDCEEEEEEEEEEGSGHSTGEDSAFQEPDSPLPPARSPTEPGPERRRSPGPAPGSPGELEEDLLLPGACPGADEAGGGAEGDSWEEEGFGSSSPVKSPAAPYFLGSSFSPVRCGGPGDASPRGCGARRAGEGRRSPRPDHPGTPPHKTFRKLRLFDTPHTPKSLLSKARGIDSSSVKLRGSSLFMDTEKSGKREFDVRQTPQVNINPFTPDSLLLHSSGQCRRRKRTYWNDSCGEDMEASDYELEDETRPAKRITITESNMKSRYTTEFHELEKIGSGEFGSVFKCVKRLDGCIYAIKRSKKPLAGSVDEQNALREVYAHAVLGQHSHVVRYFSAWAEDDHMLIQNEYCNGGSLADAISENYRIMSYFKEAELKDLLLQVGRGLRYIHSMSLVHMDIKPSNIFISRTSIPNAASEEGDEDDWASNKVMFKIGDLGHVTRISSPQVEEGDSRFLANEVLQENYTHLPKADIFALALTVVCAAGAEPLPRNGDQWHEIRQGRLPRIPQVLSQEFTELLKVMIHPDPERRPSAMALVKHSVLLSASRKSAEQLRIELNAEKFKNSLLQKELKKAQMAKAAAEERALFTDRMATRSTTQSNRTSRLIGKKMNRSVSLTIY
T5 sequence (Q96SW2 whole entry): as the sequence (Q96SW2 whole entry) above
T5 sequence (Q16531 whole entry partner): as the sequence (Q16531 whole entry partner) above
T6 sequence (Q96SW2 whole entry): as the sequence (Q96SW2 whole entry) above

Row | SMILES | inhibition at 0.5 µM [7] | inhibition at 2 µM [7] | CK1α substrate protein remaining % [1, 8] | IKZF 1 substrate protein remaining % [2, 8] | IKZF2 substrate protein remaining % [3, 8] | IKZF3 substrate protein remaining % [4, 8] | Wee1 substrate protein remaining % [5, 8] | GSPT1 substrate protein remaining % [6, 8] | CK1α substrate protein remaining % [1, 9] | IKZF 1 substrate protein remaining % [2, 9] | IKZF2 substrate protein remaining % [3, 9] | IKZF3 substrate protein remaining % [4, 9] | Wee1 substrate protein remaining % [5, 9] | GSPT1 substrate protein remaining % [6, 9]
1 | O=C1CCC(N2Cc3cc(CN4C5CC4CN(C(c4ccccc4)c4ccccc4)C5)ccc3C2=S)C(=O)N1 (centres unmarked) [GT-07738, 3-(5-((3-benzhydryl-3,6-diazabicyclo[3.1.1]heptan-6-yl)methyl)-1-thioxoisoindolin-2-yl)piperidine-2,6-dione] | 53 to 60% | 80 to 100% | B (80%< substrate protein remaining %≤ 100%) | A (0% ≤ substrate protein remaining % ≤ 80%) | A (0% ≤ substrate protein remaining % ≤ 80%) | B (80%< substrate protein remaining %≤ 100%) | B (80%< substrate protein remaining %≤ 100%) | A (0% ≤ substrate protein remaining % ≤ 80%) | – | – | – | – | – | –
2 | O=C1CCC(N2Cc3cc(CN4CCC(c5ccnc(Cl)c5Cl)CC4)ccc3C2=S)C(=O)N1 (centres unmarked) [GT-08475, 3-(5-((4-(2,3-dichloropyridin-4-yl)piperidin-1-yl)methyl)-1-thioxoisoindolin-2-yl)piperidine-2,6-dione] | 60 to 80% | 80 to 100% | B (80%< substrate protein remaining %≤ 100%) | B (80%< substrate protein remaining %≤ 100%) | B (80%< substrate protein remaining %≤ 100%) | B (80%< substrate protein remaining %≤ 100%) | B (80%< substrate protein remaining %≤ 100%) | A (0% ≤ substrate protein remaining % ≤ 80%) | – | – | – | – | – | –
3 | O=C1CCC(N2Cc3cc(CN4CCN(C(c5ccccc5)c5ccncc5)CC4)ccc3C2=S)C(=O)N1 (centres unmarked) [GT-07733, 3-(5-((4-(phenyl(pyridin-4-yl)methyl)piperazin-1-yl)methyl)-1-thioxoisoindolin-2-yl)piperidine-2,6-dione] | 60 to 80% | 80 to 100% | B (80%< substrate protein remaining %≤ 100%) | B (80%< substrate protein remaining %≤ 100%) | B (80%< substrate protein remaining %≤ 100%) | A (0% ≤ substrate protein remaining % ≤ 80%) | A (0% ≤ substrate protein remaining % ≤ 80%) | A (0% ≤ substrate protein remaining % ≤ 80%) | – | – | – | – | – | –
4 | O=C1CCC(N2Cc3c(CN4CCN(c5cccc(Cl)c5Cl)CC4)cccc3C2=S)C(=O)N1 (centres unmarked) [GT-08258, 3-(4-((4-(2,3-dichlorophenyl)piperazin-1-yl)methyl)-1-thioxoisoindolin-2-yl)piperidine-2,6-dione] | – | – | B (80%< substrate protein remaining %≤ 100%) | B (80%< substrate protein remaining %≤ 100%) | B (80%< substrate protein remaining %≤ 100%) | B (80%< substrate protein remaining %≤ 100%) | A (0% ≤ substrate protein remaining % ≤ 80%) | A (0% ≤ substrate protein remaining % ≤ 80%) | – | – | – | – | – | –
5 | O=C1CCC(N2Cc3c(CN4CCN(c5ccc(C(F)(F)F)cn5)CC4)cccc3C2=S)C(=O)N1 (centres unmarked) [GT-08702, 3-(1-thioxo-4-((4-(5-(trifluoromethyl)pyridin-2-yl)piperazin-1-yl)methyl)isoindolin-2-yl)piperidine-2,6-dione] | – | – | B (80%< substrate protein remaining %≤ 100%) | B (80%< substrate protein remaining %≤ 100%) | B (80%< substrate protein remaining %≤ 100%) | B (80%< substrate protein remaining %≤ 100%) | A (0% ≤ substrate protein remaining % ≤ 80%) | B (80%< substrate protein remaining %≤ 100%) | – | – | – | – | – | –
6 | O=C1CCC(N2Cc3c(CN4CCC(c5cccc(F)c5Cl)CC4)cccc3C2=S)C(=O)N1 (centres unmarked) [GT-08321, 3-(4-((4-(2-chloro-3-fluorophenyl)piperidin-1-yl)methyl)-1-thioxoisoindolin-2-yl)piperidine-2,6-dione] | – | – | – | – | – | – | – | – | B (80%< substrate protein remaining %≤ 100%) | B (80%< substrate protein remaining %≤ 100%) | B (80%< substrate protein remaining %≤ 100%) | A (0% ≤ substrate protein remaining % ≤ 80%) | A (0% ≤ substrate protein remaining % ≤ 80%) | B (80%< substrate protein remaining %≤ 100%)

Second part, led by results:

Row | inhibition at 0.5 µM [7] | inhibition at 2 µM [7] | SMILES | CK1α substrate protein remaining % [1, 8] | IKZF 1 substrate protein remaining % [2, 8] | IKZF2 substrate protein remaining % [3, 8] | IKZF3 substrate protein remaining % [4, 8] | Wee1 substrate protein remaining % [5, 8] | GSPT1 substrate protein remaining % [6, 8] | CK1α substrate protein remaining % [1, 9] | IKZF 1 substrate protein remaining % [2, 9] | IKZF2 substrate protein remaining % [3, 9] | IKZF3 substrate protein remaining % [4, 9] | Wee1 substrate protein remaining % [5, 9] | GSPT1 substrate protein remaining % [6, 9]
7 | 60 to 80% | 80 to 100% | O=C1CCC(N2Cc3cc(CN4CCN(c5cc(Cl)ccn5)CC4)ccc3C2=S)C(=O)N1 (centres unmarked) [GT-09218, 3-(5-((4-(4-chloropyridin-2-yl)piperazin-1-yl)methyl)-1-thioxoisoindolin-2-yl)piperidine-2,6-dione] | B (80%< substrate protein remaining %≤ 100%) | B (80%< substrate protein remaining %≤ 100%) | B (80%< substrate protein remaining %≤ 100%) | B (80%< substrate protein remaining %≤ 100%) | B (80%< substrate protein remaining %≤ 100%) | A (0% ≤ substrate protein remaining % ≤ 80%) | – | – | – | – | – | –
8 | 60 to 80% | 80 to 100% | O=C1CCC(N2Cc3cc(CN4CCN(c5ccc(F)cn5)CC4)ccc3C2=S)C(=O)N1 (centres unmarked) [GT-09222, 3-(5-((4-(5-fluoropyridin-2-yl)piperazin-1-yl)methyl)-1-thioxoisoindolin-2-yl)piperidine-2,6-dione] | B (80%< substrate protein remaining %≤ 100%) | A (0% ≤ substrate protein remaining % ≤ 80%) | B (80%< substrate protein remaining %≤ 100%) | B (80%< substrate protein remaining %≤ 100%) | A (0% ≤ substrate protein remaining % ≤ 80%) | B (80%< substrate protein remaining %≤ 100%) | – | – | – | – | – | –
9 | 60 to 80% | 80 to 100% | O=C1CCC(N2Cc3c(CN4CCN(c5cnnc(Cl)c5Cl)CC4)cccc3C2=S)C(=O)N1 (centres unmarked) [GT-08815, 3-(4-((4-(5,6-dichloropyridazin-4-yl)piperazin-1-yl)methyl)-1-thioxoisoindolin-2-yl)piperidine-2,6-dione] | B (80%< substrate protein remaining %≤ 100%) | B (80%< substrate protein remaining %≤ 100%) | B (80%< substrate protein remaining %≤ 100%) | B (80%< substrate protein remaining %≤ 100%) | A (0% ≤ substrate protein remaining % ≤ 80%) | B (80%< substrate protein remaining %≤ 100%) | – | – | – | – | – | –
10 | 40 to 53% | 80 to 100% | Cc1nc(C2=CCN(Cc3cccc4c3CN(C3CCC(=O)NC3=O)C4=S)CC2)c2c3c(sc2n1)CCCC3 (centres unmarked) [GT-08961, 3-(4-((4-(2-methyl-5,6,7,8-tetrahydrobenzo[4,5]thieno[2,3-d]pyrimidin-4-yl)-3,6-dihydropyridin-1(2H)-yl)methyl)-1-thioxoisoindolin-2-yl)piperidine-2,6-dione] | – | – | – | – | – | – | B (80%< substrate protein remaining %≤ 100%) | B (80%< substrate protein remaining %≤ 100%) | B (80%< substrate protein remaining %≤ 100%) | B (80%< substrate protein remaining %≤ 100%) | A (0% ≤ substrate protein remaining % ≤ 80%) | B (80%< substrate protein remaining %≤ 100%)

Reference: EP4745135A1 (Gluetacs Therapeutics (Shanghai) Co., Ltd., priority 2023, dated 2025)
